Here are results for 30 molecules from US20240307382A1, “MODULATORS OF THE INTEGRATED STRESS PATHWAY” (Calico Life Sciences LLC, priority 2017, published 2024).

This experiment relates to HEK293T cells carrying the ATF4 luciferase reporter. The experiment can be described thus: ATF4-Luc assay (ATF4 luciferase reporter, tunicamycin-treated cells). It is filed as cell-based. The settings on record: Homo sapiens, HEK-293T, 1 μg/mL tunicamycin, 7 hours. The essentials:
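A stable HEK293T reporter line was made by placing the full-length human ATF4 5′-UTR ahead of a firefly luciferase sequence without its start methionine, delivered by retroviral transduction and puromycin selection. Cells were seeded at 30,000 per well in polylysine-coated 384-well plates, exposed next day to 1 μg/mL tunicamycin plus compound for 7 hours, and luminescence was read with One Glo.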
Usually EC50 stands for the concentration that produces a half-maximal response. In the case of `O=C(COc1ccc(Cl)c(F)c1)NC12CCC(NC(=O)c3cccc(O)c3)(CC1)CC2` [Compound 982, N-{4-[2-(4-chloro-3-fluorophenoxy)acetamido]bicyclo[2.2.2]octan-1-yl}-3-hydroxybenzamide], the EC50 is 250 to 1000 nM.

In the case of `Cn1nc(C(F)F)cc1C(=O)NC12CCC(NC(=O)COc3ccc(Cl)c(Cl)c3)(CC1)[C@@H](O)C2` [Compound 1010, N-{(3S)-4-[2-(3,4-dichlorophenoxy)acetamido]-3-hydroxybicyclo[2.2.2]octan-1-yl}-3-(difluoromethyl)-1-methyl-1H-pyrazole-5-carboxamide], the EC50 is less than 50 nM.

As to `O=C(COc1ccc(F)c(F)c1)NC12CCC(NC(=O)c3cc(C(F)F)no3)(CC1)C[C@@H]2O` [Compound 1100, 3-(difluoromethyl)-N-{(3S)-4-[2-(3,4-difluorophenoxy)acetamido]-3-hydroxybicyclo[2.2.2]octan-1-yl}-1,2-oxazole-5-carboxamide], the EC50 is 50 to 250 nM.

`O=C(COc1ccc(Cl)c(F)c1)NC12CCC(NC(=O)c3coc(C(F)(F)F)n3)(CC1)C[C@@H]2O` [Compound 1004, N-{(3S)-4-[2-(4-chloro-3-fluorophenoxy)acetamido]-3-hydroxybicyclo[2.2.2]octan-1-yl}-2-(trifluoromethyl)-1,3-oxazole-4-carboxamide]: the EC50 was less than 50 nM.

For the molecule `Cc1cc(C(=O)NC23CCC(NC(=O)COc4ccc(Cl)c(F)c4)(CC2)C(=O)N3)on1` [Compound 1051, N-{4-[2-(4-chloro-3-fluorophenoxy)acetamido]-3-oxo-2-azabicyclo[2.2.2]octan-1-yl}-3-methyl-1,2-oxazole-5-carboxamide], the EC50 is greater than 2000 nM.

In the case of `COc1cccnc1C(=O)NC12CC(NC(=O)COc3ccc(Cl)c(F)c3)(C1)C2` [Compound 1092, N-{3-[2-(4-chloro-3-fluorophenoxy)acetamido]bicyclo[1.1.1]pentan-1-yl}-3-methoxypyridine-2-carboxamide], the EC50 is greater than 2000 nM.

With `O=C(COc1ccc(Cl)c(Cl)c1)NC12CCC(NC(=O)c3cc(C(F)(F)F)ccn3)(CC1)C[C@@H]2O` [Compound 1030, N-{(3S)-4-[2-(3,4-dichlorophenoxy)acetamido]-3-hydroxybicyclo[2.2.2]octan-1-yl}-4-(trifluoromethyl)pyridine-2-carboxamide], the EC50 lay in the range of 50 to 250 nM.

In the case of `CN1CCN(c2ncnc3ccc(NC45CC(NC(=O)COc6ccc(Cl)c(F)c6)(C4)C5)cc23)CC1` [Compound 959, 2-(4-chloro-3-fluorophenoxy)-N-(3-{[4-(4-methylpiperazin-1-yl)quinazolin-6-yl]amino}bicyclo[1.1.1]pentan-1-yl)acetamide], the EC50 was greater than 2000 nM.

As to `O=C(NC12CC(NC(=O)c3cnc(-c4ccccc4)o3)(C1)C2)c1cnc(C(F)F)cn1` [Compound 1058, 5-(difluoromethyl)-N-{3-[(2-phenyl-1,3-oxazole-5-carbonyl)amino]bicyclo[1.1.1]pentan-1-yl}pyrazine-2-carboxamide], the EC50 lay in the range of 50 to 250 nM.

In the case of `COCC(=O)Nc1cc(F)c(F)cc1C(=O)NC12CC(NC(=O)COc3ccc(Cl)c(F)c3)(C1)C2` [Compound 1061, N-{3-[2-(4-chloro-3-fluorophenoxy)acetamido]bicyclo[1.1.1]pentan-1-yl}-4,5-difluoro-2-(2-methoxyacetamido)benzamide], the EC50 lay in the range of 250 to 1000 nM.

With `O=C(COc1ccc(Cl)c(F)c1)NC12CCC(NC(=O)c3nc4cc(F)c(F)cc4o3)(CC1)C[C@@H]2O` [Compound 1075, N-{(3S)-4-[2-(4-chloro-3-fluorophenoxy)acetamido]-3-hydroxybicyclo[2.2.2]octan-1-yl}-5,6-difluoro-1,3-benzoxazole-2-carboxamide], the EC50 is less than 50 nM.

For `Cc1cc(C(=O)N(C)C23CCC(NC(=O)COc4ccc(Cl)c(Cl)c4)(CC2)[C@@H](O)C3)on1` [Compound 968, N-{(3S)-4-[2-(3,4-dichlorophenoxy)acetamido]-3-hydroxybicyclo[2.2.2]octan-1-yl}-N,3-dimethyl-1,2-oxazole-5-carboxamide], the EC50 lay in the range of 1000 to 2000 nM.

Turning to `O=C(COc1ccc(Cl)c(F)c1)NC12CC(NC(=O)c3cnc4cc(F)ccc4n3)(C1)C2` [Compound 951, N-{3-[2-(4-chloro-3-fluorophenoxy)acetamido]bicyclo[1.1.1]pentan-1-yl}-6-fluoroquinoxaline-2-carboxamide], the EC50 was less than 50 nM.

As to `O=C(COc1ccc(Cl)c(F)c1)NC12CCC(NC(=O)c3cnc4cc(F)ccc4n3)(CC1)[C@@H](O)C2` [Compound 950, N-{(2S)-4-[2-(4-chloro-3-fluorophenoxy)acetamido]-2-hydroxybicyclo[2.2.2]octan-1-yl}-6-fluoroquinoxaline-2-carboxamide], the EC50 is less than 50 nM.

In the case of `CC(O)c1ncc(C(=O)NC23CCC(NC(=O)COc4ccc(Cl)c(F)c4)(CC2)CC3)s1` (stereo not drawn) [Compound 970, N-{4-[2-(4-chloro-3-fluorophenoxy)acetamido]bicyclo[2.2.2]octan-1-yl}-2-(1-hydroxyethyl)-1,3-thiazole-5-carboxamide], the EC50 was greater than 2000 nM.

For the molecule `O=C(COc1ccc(Cl)c(F)c1)NC12CCC(NC(=O)c3ccc(OC(F)(F)F)cn3)(C1)C2` [Compound 297, N-{4-[2-(4-chloro-3-fluorophenoxy)acetamido]bicyclo[2.1.1]hexan-1-yl}-5-(trifluoromethoxy)pyridine-2-carboxamide], the EC50 was less than 50 nM.

Take `COc1ccnc(C(=O)NC23CCC(NC(=O)COc4ccc(Cl)c(F)c4)(CC2)C(O)C3)c1` (stereo not drawn) [Compound 924, N-{4-[2-(4-chloro-3-fluorophenoxy)acetamido]-3-hydroxybicyclo[2.2.2]octan-1-yl}-4-methoxypyridine-2-carboxamide]: the EC50 lay within 1000 to 2000 nM.

On to `O=C(COc1ccc(Cl)c(F)c1)NC12CCC(NC(=O)c3ncc(-c4ccccc4)s3)(CC1)C[C@@H]2O` [Compound 1035, N-{(3S)-4-[2-(4-chloro-3-fluorophenoxy)acetamido]-3-hydroxybicyclo[2.2.2]octan-1-yl}-5-phenyl-1,3-thiazole-2-carboxamide], for which the EC50 is less than 50 nM.

As to `O=C(COc1ccc(Cl)c(Cl)c1)NC12CCC(NC(=O)c3cnc(-c4ccccc4)o3)(CC1)C[C@@H]2O` [Compound 1041, N-{(3S)-4-[2-(3,4-dichlorophenoxy)acetamido]-3-hydroxybicyclo[2.2.2]octan-1-yl}-2-phenyl-1,3-oxazole-5-carboxamide], the EC50 is less than 50 nM.

As to `Cc1nc(C(=O)NC23CC(NC(=O)COc4ccc(Cl)c(F)c4)(C2)C3)n(C)n1` [Compound 1067, N-{3-[2-(4-chloro-3-fluorophenoxy)acetamido]bicyclo[1.1.1]pentan-1-yl}-1,3-dimethyl-1H-1,2,4-triazole-5-carboxamide], the EC50 is 50 to 250 nM.

On to `O=C(COc1ccc(Cl)c(F)c1)NC12CCC(NC(=O)c3cccc(CO)c3)(CC1)CC2` [Compound 981, N-{4-[2-(4-chloro-3-fluorophenoxy)acetamido]bicyclo[2.2.2]octan-1-yl}-3-(hydroxymethyl)benzamide], for which the EC50 was 250 to 1000 nM.

Turning to `O=C(NC12CCC(NC(=O)c3cnc(-c4ccccc4)o3)(CC1)[C@@H](O)C2)c1cnc(-c2ccccc2)o1` [Compound 1053, N,N′-[(2S)-2-hydroxybicyclo[2.2.2]octane-1,4-diyl]bis(2-phenyl-1,3-oxazole-5-carboxamide)], the EC50 was less than 50 nM.

With `O=C(COc1ccc(Cl)c(Cl)c1)NC12CCC(NC(=O)c3ccc(C(F)F)cn3)(CC1)C[C@@H]2O` [Compound 990, N-{(3S)-4-[2-(3,4-dichlorophenoxy)acetamido]-3-hydroxybicyclo[2.2.2]octan-1-yl}-5-(difluoromethyl)pyridine-2-carboxamide], the EC50 is less than 50 nM.

As to `O=C(COc1ccc(Cl)cc1)NC12CCC(NC(=O)c3cc(C(F)F)no3)(CC1)C[C@@H]2O` [Compound 1102, N-{(3S)4-[2-(4-chlorophenoxy)acetamido]-3-hydroxybicyclo[2.2.2]octan-1-yl}-3-(difluoromethyl)-1,2-oxazole-5-carboxamide], the EC50 was less than 50 nM.

As to `O=C(COc1ccc(Cl)c(F)c1)NC12CC(NC(=O)c3cc4c(cn3)CCCC4)(C1)C2` [Compound 972, N-{3-[2-(4-chloro-3-fluorophenoxy)acetamido]bicyclo[1.1.1]pentan-1-yl}-5,6,7,8-tetrahydroisoquinoline-3-carboxamide], the half-maximal effective concentration (EC50) lay within 50 to 250 nM.

For `NCc1ccnc(C(=O)NC23CCC(NC(=O)COc4ccc(Cl)c(F)c4)(CC2)CC3)c1` [Compound 975, 4-(aminomethyl)-N-{4-[2-(4-chloro-3-fluorophenoxy)acetamido]bicyclo[2.2.2]octan-1-yl}pyridine-2-carboxamide], the EC50 was less than 50 nM.

As for `O=C(COc1ccc(Cl)c(F)c1)NC12CCC(NC(=O)c3ccc4c(c3)OC(F)(F)O4)(CC1)C[C@@H]2O` [Compound 984, N-{(3S)-4-[2-(4-chloro-3-fluorophenoxy)acetamido]-3-hydroxybicyclo[2.2.2]octan-1-yl}-2,2-difluoro-2H-1,3-benzodioxole-5-carboxamide], the EC50 was less than 50 nM.

With `O=C(COc1ccc(Cl)c(F)c1)NC12CCC(NC(=O)c3nc(-c4ccccc4)cs3)(CC1)C[C@@H]2O` [Compound 1038, N-{(3S)-4-[2-(4-chloro-3-fluorophenoxy)acetamido]-3-hydroxybicyclo[2.2.2]octan-1-yl}-4-phenyl-1,3-thiazole-2-carboxamide], the EC50 is less than 50 nM.

With `NC(=O)c1cccc(NC23CC(NC(=O)COc4ccc(Cl)c(F)c4)(C2)C3)n1` [Compound 961, 6-({3-[2-(4-chloro-3-fluorophenoxy)acetamido]bicyclo[1.1.1]pentan-1-yl}amino)pyridine-2-carboxamide], the EC50 fell in the range of 1000 to 2000 nM.

For the molecule `N#Cc1ccnc(C(=O)NC23CCC(NC(=O)COc4ccc(Cl)c(Cl)c4)(CC2)[C@@H](O)C3)c1` [Compound 1032, 4-cyano-N-{(3S)-4-[2-(3,4-dichlorophenoxy)acetamido]-3-hydroxybicyclo[2.2.2]octan-1-yl}pyridine-2-carboxamide], the EC50 is less than 50 nM.
